Assay results: ChEMBL document CHEMBL1201862, “PubChem BioAssay data set” (2004)
Calls of active or inactive are those of the source.

Experiments:
[1] = HepG2 cell cytotoxicity, dose response, cytotoxicity control, cherry-picks, set 5 (AID 1053118); type: functional, cell-based
[2] = HEK293 cell cytotoxicity, dose response, cytotoxicity control, cherry-picks, set 5 (AID 1053117); type: functional, cell-based
[3] = A549 cell cytotoxicity, dose response, cytotoxicity control, cherry-picks, 26 µM top dose (AID 1053119); type: functional, cell-based
[4] = Late stage assay provider results from the probe development effort to identify selective inhibitors of heat shock protein 90 (HSP90): Absorbance-based cell proliferation assay in SKBR3 cells.; type: functional; details: SK-BR-3
[5] = Late stage assay provider results from the probe development effort to identify selective inhibitors of heat shock protein 90 (HSP90): Absorbance-based cell proliferation assay in MCF7 cells.; type: functional
[6] = A375 melanoma cell viability loss, dose response, counter-screen for MITF inhibitor project, CellTiter-Glo luminescence, dry powder, set 4 (AID 624364); type: functional, cell-based; details: A-375;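 note: A375 melanoma cells are MITF independent so this is a counter screen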
[7] = A375 melanoma cell cytotoxicity, dose response, counter-screen for MITF inhibitor project, CellTiter-Glo luminescence, dry powder, set 2 (AID 624489); type: functional, cell-based; details: A-375;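 note: actives are compounds lowering A375 viability meaning general cytotoxicity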
[8] = target: Potassium channel subfamily K member 9 (Homo sapiens, UniProt Q9NPC2); test: TASK3 (KCNK9) channel inhibitors, thallium flux, SAR follow-up, selectivity assay for TASK1 inhibitor project, cell-based, FluxOR thallium flux, concentration-response (AID 652211); type: functional;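 note: potency is for inhibitors of the channel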
[9] = target: Potassium channel subfamily K member 3 (Homo sapiens, UniProt O14649); test: TASK1 (KCNK3) potassium channel inhibitors, SAR follow-up, CHO cells, FluxOR thallium flux (AID 652212); type: functional
[10] = target: Endoplasmic reticulum aminopeptidase 1 (Homo sapiens, UniProt Q9NZ08); test: ERAP1 aminopeptidase inhibitors, dose response, biochemical, cherry-pick, set 2, plate reader (AID 743314)
[11] = NIH/3T3 fibroblast cytotoxicity, dose response, cytotoxicity control, cell-based, plate reader, dry powder, set 2 (AID 652280); type: functional; details: NIH3T3
[12] = T. cruzi growth inhibition in host cells, dose response, cell-based, plate reader, dry powder, set 2 (AID 652275); type: functional
[13] = T. cruzi intracellular amastigote growth inhibition, dose response, imaging, CA-I/72 strain, bovine embryo skeletal muscle, dry powder (AID 651885); type: functional, cell-based
[14] = HEK293T cytotoxicity, dose response, cytotoxicity control for miR-122 modulator project, cell-based, inhibitor set, cherry-pick, set 2 (AID 720697); type: functional
[15] = HEK293T cytotoxicity, dose response, cytotoxicity control for miR-122 modulator project, cell-based, activator set, cherry-pick (AID 720690); type: functional;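 note: HEK293T human cells scored for general mammalian cytotoxicity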
[16] = Luminescence-based cell-based high throughput dose response assay to identify activators of the DAF-12 from the parasite S. stercoralis (ssDAF-12).; type: functional
[17] = MITF Orthogonal Assay: SK-MEL-5 CTG Assay Measured in Cell-Based System Using Plate Reader - 2084-02_Inhibitor_Dose_DryPowder_Activity_Set7.; type: functional
[18] = MITF: Counter assay: A375 proliferation Measured in Cell-Based System Using Plate Reader - 2084-03_Inhibitor_Dose_DryPowder_Activity_Set8.; type: functional; details: A-375
[19] = TRPM1 promoter luciferase reporter signal decrease, dose response, MITF inhibitor project, cell-based, SK-MEL-5, dry powder, set 8 (AID 624430); type: functional

Endoplasmic reticulum aminopeptidase 1, sequence (Q9NZ08 whole entry): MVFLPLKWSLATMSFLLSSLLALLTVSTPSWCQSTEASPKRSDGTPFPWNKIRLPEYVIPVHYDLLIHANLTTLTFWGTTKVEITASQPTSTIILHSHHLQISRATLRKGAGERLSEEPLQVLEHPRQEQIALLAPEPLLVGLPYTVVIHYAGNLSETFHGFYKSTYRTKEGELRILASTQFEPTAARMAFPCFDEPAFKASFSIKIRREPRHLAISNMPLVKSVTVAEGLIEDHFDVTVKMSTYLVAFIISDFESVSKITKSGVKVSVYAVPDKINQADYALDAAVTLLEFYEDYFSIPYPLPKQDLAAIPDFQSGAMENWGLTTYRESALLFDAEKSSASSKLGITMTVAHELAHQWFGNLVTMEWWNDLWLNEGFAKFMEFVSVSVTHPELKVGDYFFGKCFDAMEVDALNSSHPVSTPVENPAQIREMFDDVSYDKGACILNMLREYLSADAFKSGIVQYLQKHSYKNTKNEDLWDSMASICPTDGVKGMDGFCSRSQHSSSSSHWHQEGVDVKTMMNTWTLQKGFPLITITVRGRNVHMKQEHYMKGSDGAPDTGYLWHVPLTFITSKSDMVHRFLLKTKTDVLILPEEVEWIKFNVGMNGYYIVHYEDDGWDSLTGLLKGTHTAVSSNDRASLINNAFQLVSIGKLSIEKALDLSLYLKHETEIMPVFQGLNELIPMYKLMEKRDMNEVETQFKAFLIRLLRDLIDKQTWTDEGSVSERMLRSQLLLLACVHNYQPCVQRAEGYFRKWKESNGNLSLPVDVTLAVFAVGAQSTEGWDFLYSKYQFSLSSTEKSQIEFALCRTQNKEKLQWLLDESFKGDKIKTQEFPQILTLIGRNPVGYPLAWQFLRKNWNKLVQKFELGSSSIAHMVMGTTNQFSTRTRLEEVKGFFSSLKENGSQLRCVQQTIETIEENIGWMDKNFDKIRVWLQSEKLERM
Potassium channel subfamily K member 9, sequence (Q9NPC2 whole entry): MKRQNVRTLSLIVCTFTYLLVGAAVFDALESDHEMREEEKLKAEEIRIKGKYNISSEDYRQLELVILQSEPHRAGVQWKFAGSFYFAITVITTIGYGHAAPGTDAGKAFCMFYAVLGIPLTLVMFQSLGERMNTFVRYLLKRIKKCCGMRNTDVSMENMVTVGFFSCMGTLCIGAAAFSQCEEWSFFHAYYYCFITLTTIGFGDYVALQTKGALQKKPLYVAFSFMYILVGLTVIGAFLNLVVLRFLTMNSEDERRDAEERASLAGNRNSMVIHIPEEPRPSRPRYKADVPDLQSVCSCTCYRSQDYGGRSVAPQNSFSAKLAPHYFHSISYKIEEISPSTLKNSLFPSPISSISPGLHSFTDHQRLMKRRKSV
Potassium channel subfamily K member 3, sequence (O14649 whole entry): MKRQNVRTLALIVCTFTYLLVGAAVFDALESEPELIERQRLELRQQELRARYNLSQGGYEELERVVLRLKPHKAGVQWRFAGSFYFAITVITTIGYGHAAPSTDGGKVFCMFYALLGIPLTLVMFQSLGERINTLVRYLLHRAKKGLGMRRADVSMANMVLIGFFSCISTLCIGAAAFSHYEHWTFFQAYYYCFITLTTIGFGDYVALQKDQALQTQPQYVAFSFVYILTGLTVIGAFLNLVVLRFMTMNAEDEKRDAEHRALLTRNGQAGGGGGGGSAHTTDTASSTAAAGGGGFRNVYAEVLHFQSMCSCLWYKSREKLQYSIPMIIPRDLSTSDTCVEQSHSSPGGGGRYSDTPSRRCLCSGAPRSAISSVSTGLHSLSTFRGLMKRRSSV

CO[C@H]1CN(C)C(=O)c2cc(NC(=O)Nc3ccc(Cl)c(Cl)c3)ccc2OC[C@H](C)NC[C@@H]1C
AC50 [1]: 13 µM (active) | AC50 [2]: 12.8 µM (active) | AC50 [3]: 12.9 µM (active)

O=C1OC(=O)/C(=C\NCCC2=CCCCC2)C=C1Br
IC50 [4]: 8 µM (active) | IC50 [5]: 3 µM (active)

O=C(NC1=C(c2ccc(OC(F)(F)F)cc2)C(=O)c2ccccc2C1=O)c1ccccc1F
AC50 [6]: 34.4 µM (active) | AC50 [7]: 30.5 µM (active)

CCOc1ccccc1NC(=O)c1cccc(NC(=O)c2cccc(OC)c2)c1
IC50 [8]: 2.33 µM (active) | IC50 [9]: 0.005 µM (active)

CCNC(=O)[C@H]1[C@H](CO)[C@H]2Cn3c(ccc(/C=C/c4ccccc4)c3=O)[C@@H]1N2
AC50 [10]: 11.3 µM (active)

C[C@@H]1CN([C@@H](C)CO)C(=O)c2cc(-c3cccnc3)cnc2O[C@H]1CN(C)Cc1ccc(Oc2ccccc2)cc1
AC50 [11]: 11.9 µM (active) | AC50 [12]: 1.95 µM (active) | IC50 [13]: > 20 µM (inactive)

CN1C(=O)c2cc(NS(=O)(=O)c3cccc(F)c3)ccc2OC[C@@H]2O[C@@H](CC(=O)NCCN3CCCCC3)CC[C@H]21
AC50 [14]: 0.254 µM (active) | AC50 [15]: 26.1 µM (active)

CC1=CC(c2ccccc2)=Nc2ccc(C)cc2N1
IC50 [16]: > 67.5 µM (inactive)

O=C1C=C(Nc2cccc(C(F)(F)F)c2)C(=O)c2ccccc21
AC50 [17]: 0.463 µM (active) | AC50 [18]: > 70 µM (inactive) | AC50 [19]: > 70 µM (inactive)
